Consider four molecules from patent US11622976B2, “Urine alkali agent useful for treatment of cancer patient” (Delta-Fly Pharma, Inc., priority 2018, dated 2023).

The subject of data set [1] is gastric cancer (gastroesophageal junction cancer). The following applies: cited from earlier work.
Data set [2] relates to breast cancer associated with lung metastasis. As to the kind of experiment: Urinary alkalinization therapy, breast cancer patient with lung metastasis (person). It is filed as in vivo, human. Here is the method: A patient was diagnosed with breast cancer […] and underwent a surgical operation. In January, 2011, transfer of recurrent breast cancer to the lung was found. Administration of Taxotere (80 mg/m^2) was continued at the intervals of 3 weeks. […] Because of this, the dose of Taxotere was reduced to 60 mg/m^2 (intervals of 3 weeks).

For the next data set, the system named is lung cancer. Put plainly: Urinary alkalinization therapy, lung cancer patient. The class given is in vivo, human. The text has this: A patient successively underwent a surgery for breast cancer in March, 2009, a surgery for endometrial cancer in October, 2010 and a surgery for lung cancer (adenocarcinoma, upper right lobe) in December, 2011.
From January, 2012, application of a urinary alkalinization therapy, including orally administering magnesium oxide (laxative, Magmitt (manufactured by Kyowa Chemical Industry Co., Ltd.)) every day in a dose of 2 g per day after a meal three times (the dose being divided into three portions), was initiated.

Another data set concerns B16 melanoma cells. The following applies: aqueous solution 200 mmol/L (17 g/L) fed, with cancer immunotherapy by e.g. a cancer immunity-checkpoint inhibitor; vs water without sodium hydrogen carbonate; cited from earlier work.
A further data set has as its system cancer cells. The following applies: pHe shifted from acidic to alkaline range by gradually increasing the concentration in the serum; cited from earlier work.

“Also recorded” adds a separate entry of the source.

For the molecule “Opdivo: immune checkpoint inhibitor containing anti-human PD-1 monoclonal antibody (nivolumab)”, in data set [1] (gastric cancer patients (gastroesophageal junction cancer), Lancet. 2017 Dec. 2, 390 (10111): 2461-2471), the median overall survival entry was “about 5.26 months”. For the same molecule, the “tumor shrinkage and decrease of a tumor marker level” value in data set [1] (patients with end-stage gastric cancer) is “seldom confirmed”.
For the molecule `CC(=O)O[C@@]12CO[C@@H]1C[C@H](O)[C@@]1(C)C(=O)[C@H](O)C3=C(C)[C@@H](OC(=O)[C@H](O)[C@@H](NC(=O)OC(C)(C)C)c4ccccc4)C[C@@](O)([C@@H](OC(=O)c4ccccc4)[C@H]21)C3(C)C` [Taxotere, docetaxel], the side effect entry in data set [2] (Taxotere alone 80 mg/m^2 every 3 weeks, six months) is “severe side effect”. The disease state result in data set [2] (Taxotere alone reduced to 60 mg/m^2 every 3 weeks) is on record as “the disease did not become stable”.
Take `[O]=[Mg]` [magnesium oxide]: the “urine pH value” in the data set on lung cancer (continuous oral administration, 2 g per day) is given as “kept in the alkaline pH range”. Besides, in the data set with lung cancer (oral, 2 g per day in three portions, every day from January, 2012, after surgeries), the “recurrence/metastasis, development of another cancer” value is “recurrence and metastasis of lung cancer have not been observed; also recorded: Neither development of another cancer nor recurrence/metastasis has been found”.
Regarding `O=C([O-])O.[Na+]` [sodium hydrogen carbonate], the antitumor effect result with B16 melanoma cells is listed as “a significantly high antitumor effect is obtained”. In the data set with cancer cells, the “proliferation and invasion of cancer cells” value was “the proliferation and invasion of cancer cells can be suppressed”.
